Assay results: ChEMBL document CHEMBL1201862, “PubChem BioAssay data set” (2004)
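How tested: cells in 96-well plates exposed to compound for 48 hours at five concentrations. GI50 is the concentration that inhibits growth by half.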 Activity calls are given as the source filed them. No stated cut-off is given here; in the data, active = GI50 up to about 1.1 µM and inactive = higher.

Columns and labels:
Test in all cases: DTP human tumour cell line panel, 48 h
SF-268 = tested on: SF-268
786-0 = tested on: 786-0
RPMI-8226 = tested on: RPMI-8226
EKVX = tested on: EKVX
K562 = tested on: K562
OVCAR-3 = tested on: OVCAR-3
SK-MEL-5 = tested on: SK-MEL-5
M14 = tested on: M14
DLD-1 = tested on: DLD-1
OVCAR-8 = tested on: OVCAR-8
M19-MEL = tested on: M19-MEL
CAKI-1 = tested on: CAKI-1
HCT-116 = tested on: HCT-116
NCI-H460 = tested on: NCI-H460
IGROV-1 = tested on: IGROV-1
SF-295 = tested on: SF-295
CCRF-CEM = tested on: CCRF-CEM
LXFL 529 = tested on: LXFL 529
LOX IMVI = tested on: LOX IMVI
HOP-92 = tested on: HOP-92
DMS-114 = tested on: DMS-114
SW-620 = tested on: SW-620
NCI-H226 = tested on: NCI-H226
UACC-257 = tested on: UACC-257
OVCAR-5 = tested on: OVCAR-5
SNB-19 = tested on: SNB-19
HL-60 = tested on: HL-60
SK-MEL-2 = tested on: SK-MEL-2
XF498 = tested on: XF498
OVCAR-4 = tested on: OVCAR-4
COLO 205 = tested on: COLO 205
HOP-62 = tested on: HOP-62
A549 = tested on: A549
RXF 393 = tested on: RXF 393
UACC-62 = tested on: UACC-62
DMS-273 = tested on: DMS-273
NCI-H522 = tested on: NCI-H522
ACHN = tested on: ACHN
SK-OV-3 = tested on: SK-OV-3
NCI-H23 = tested on: NCI-H23
SF-539 = tested on: SF-539
Malme-3M = tested on: Malme-3M
U-251 = tested on: U-251
UO-31 = tested on: UO-31
KM-20L2 = tested on: KM-20L2
A498 = tested on: A498
SNB-75 = tested on: SNB-75
HT-29 = tested on: HT-29
SN12C = tested on: SN12C
SNB-78 = tested on: SNB-78
TK-10 = tested on: TK-10
KM12 = tested on: KM12
HCT-15 = tested on: HCT-15
SK-MEL-28 = tested on: SK-MEL-28
SR = tested on: SR
HCC 2998 = tested on: HCC 2998
MOLT-4 = tested on: MOLT-4
HOP-18 = tested on: HOP-18

`CCOC(=O)C1=C(Nc2ccc(NC3=C(C(=O)OCC)C(=O)CS3)cc2)SCC1=O` was tested, and the GI50 (SF-268) was 22 µM (inactive), the GI50 (786-0) was 14.6 µM (inactive) and the GI50 (RPMI-8226) was 18.5 µM (inactive). The GI50 (EKVX) was 35.2 µM (inactive), the GI50 (K562) was 30.5 µM (inactive) and the GI50 (OVCAR-3) was 36.7 µM (inactive). For the same compound, the GI50 (SK-MEL-5) was 19.1 µM (inactive), the GI50 (M14) was 20.4 µM (inactive) and the GI50 (DLD-1) was 20.7 µM (inactive). The GI50 (OVCAR-8) was 27 µM (inactive), the GI50 (M19-MEL) was 21.7 µM (inactive) and the GI50 (CAKI-1) was 14.8 µM (inactive). For the same compound, the GI50 (HCT-116) was 18.5 µM (inactive), the GI50 (NCI-H460) was 30.1 µM (inactive) and the GI50 (IGROV-1) was 24.3 µM (inactive). For the same compound, the GI50 (SF-295) was 26.5 µM (inactive), the GI50 (CCRF-CEM) was 29.8 µM (inactive) and the GI50 (LXFL 529) was 22.1 µM (inactive). The GI50 (LOX IMVI) was 14.2 µM (inactive), the GI50 (HOP-92) was 24.6 µM (inactive) and the GI50 (DMS-114) was 22.6 µM (inactive). For the same compound, the GI50 (SW-620) was 25.9 µM (inactive), the GI50 (NCI-H226) was 19.8 µM (inactive) and the GI50 (UACC-257) was 22.7 µM (inactive). The GI50 (OVCAR-5) was 22.7 µM (inactive), the GI50 (SNB-19) was 32.2 µM (inactive) and the GI50 (HL-60) was 32.7 µM (inactive). The GI50 (SK-MEL-2) was 16.5 µM (inactive), the GI50 (XF498) was 13.5 µM (inactive) and the GI50 (OVCAR-4) was 30.9 µM (inactive). The GI50 (COLO 205) was 17.7 µM (inactive), the GI50 (HOP-62) was 34 µM (inactive) and the GI50 (A549) was 30.3 µM (inactive). For the same compound, the GI50 (RXF 393) was 16 µM (inactive), the GI50 (UACC-62) was 16.9 µM (inactive) and the GI50 (DMS-273) was 20.7 µM (inactive). The GI50 (NCI-H522) was 13.7 µM (inactive), the GI50 (ACHN) was 22 µM (inactive) and the GI50 (SK-OV-3) was 30 µM (inactive). The GI50 (NCI-H23) was 10 µM (inactive), the GI50 (SF-539) was 20.1 µM (inactive) and the GI50 (Malme-3M) was 18.6 µM (inactive). The GI50 (U-251) was 25.2 µM (inactive), the GI50 (UO-31) was 17.5 µM (inactive) and the GI50 (KM-20L2) was 35.2 µM (inactive). For the same compound, the GI50 (A498) was 20.5 µM (inactive), the GI50 (SNB-75) was 16.6 µM (inactive) and the GI50 (HT-29) was 19.3 µM (inactive). For the same compound, the GI50 (SN12C) was 19.5 µM (inactive), the GI50 (SNB-78) was 33.6 µM (inactive) and the GI50 (TK-10) was 30.7 µM (inactive). For the same compound, the GI50 (KM12) was 21.5 µM (inactive), the GI50 (HCT-15) was 18.5 µM and the GI50 (SK-MEL-28) was 16.8 µM (inactive).

For `CN(C)c1ccc(O[Si](Oc2ccc(N(C)C)cc2)(Oc2ccc(N(C)C)cc2)Oc2ccc(N(C)C)cc2)cc1`, the GI50 (SF-268) was > 100 µM (inactive), the GI50 (786-0) was > 100 µM (inactive) and the GI50 (RPMI-8226) was > 100 µM (inactive). The GI50 (EKVX) was > 100 µM (inactive), the GI50 (SR) was > 100 µM (inactive) and the GI50 (K562) was > 100 µM (inactive). The GI50 (OVCAR-3) was 51.6 µM (inactive), the GI50 (SK-MEL-5) was > 100 µM (inactive) and the GI50 (M14) was > 100 µM (inactive). For the same compound, the GI50 (HCC 2998) was 79.6 µM (inactive), the GI50 (DLD-1) was > 100 µM (inactive) and the GI50 (OVCAR-8) was 52.8 µM (inactive). The GI50 (M19-MEL) was > 100 µM (inactive), the GI50 (CAKI-1) was > 100 µM (inactive) and the GI50 (HCT-116) was > 100 µM (inactive). The GI50 (IGROV-1) was > 100 µM (inactive), the GI50 (SF-295) was 86.3 µM (inactive) and the GI50 (CCRF-CEM) was 40.8 µM (inactive). The GI50 (LXFL 529) was 50.9 µM (inactive), the GI50 (LOX IMVI) was 79.1 µM (inactive) and the GI50 (MOLT-4) was 98.2 µM (inactive). The GI50 (HOP-92) was > 100 µM (inactive), the GI50 (DMS-114) was 46.5 µM (inactive) and the GI50 (HOP-18) was > 100 µM (inactive). For the same compound, the GI50 (SW-620) was > 100 µM (inactive), the GI50 (NCI-H226) was > 100 µM (inactive) and the GI50 (UACC-257) was 85.1 µM (inactive). For the same compound, the GI50 (OVCAR-5) was > 100 µM (inactive), the GI50 (SNB-19) was > 100 µM (inactive) and the GI50 (HL-60) was 32.9 µM (inactive). The GI50 (XF498) was 44.4 µM (inactive), the GI50 (OVCAR-4) was > 100 µM (inactive) and the GI50 (COLO 205) was 52.7 µM (inactive). For the same compound, the GI50 (HOP-62) was > 100 µM (inactive), the GI50 (A549) was > 100 µM (inactive) and the GI50 (UACC-62) was > 100 µM (inactive). For the same compound, the GI50 (NCI-H522) was 25.7 µM (inactive), the GI50 (ACHN) was > 100 µM (inactive) and the GI50 (SK-OV-3) was > 100 µM (inactive). The GI50 (NCI-H23) was 99.5 µM (inactive), the GI50 (SF-539) was > 100 µM (inactive) and the GI50 (Malme-3M) was > 100 µM (inactive). The GI50 (U-251) was 89.3 µM (inactive), the GI50 (UO-31) was > 100 µM (inactive) and the GI50 (KM-20L2) was > 100 µM (inactive). The GI50 (A498) was > 100 µM (inactive), the GI50 (SNB-75) was > 100 µM (inactive) and the GI50 (HT-29) was > 100 µM (inactive). The GI50 (SN12C) was 96.8 µM (inactive), the GI50 (TK-10) was > 100 µM (inactive) and the GI50 (KM12) was 71.6 µM (inactive). The GI50 (SK-MEL-28) was > 100 µM (inactive).

`COc1ccc(NC(=O)C(C)Oc2ccc(OCC3CCCCC3)cc2)cc1` (configuration not stated) was tested, and the GI50 (SF-268) was > 100 µM (inactive), the GI50 (786-0) was > 100 µM (inactive) and the GI50 (K562) was 57.9 µM (inactive). For the same compound, the GI50 (OVCAR-3) was 62.5 µM (inactive), the GI50 (SK-MEL-5) was 34.1 µM (inactive) and the GI50 (M14) was 70.3 µM (inactive). For the same compound, the GI50 (HCC 2998) was 23.6 µM (inactive), the GI50 (DLD-1) was 64 µM (inactive) and the GI50 (OVCAR-8) was > 100 µM (inactive). The GI50 (M19-MEL) was > 100 µM (inactive), the GI50 (HCT-116) was > 100 µM (inactive) and the GI50 (NCI-H460) was 45.8 µM (inactive). For the same compound, the GI50 (IGROV-1) was > 100 µM (inactive), the GI50 (CCRF-CEM) was 71.1 µM (inactive) and the GI50 (LXFL 529) was 51.4 µM (inactive). The GI50 (LOX IMVI) was 30.7 µM (inactive), the GI50 (MOLT-4) was 54.5 µM (inactive) and the GI50 (DMS-114) was 46.7 µM (inactive). The GI50 (NCI-H226) was > 100 µM (inactive), the GI50 (UACC-257) was 36.6 µM (inactive) and the GI50 (SNB-19) was > 100 µM (inactive). The GI50 (HL-60) was 42.2 µM (inactive), the GI50 (SK-MEL-2) was 81.1 µM (inactive) and the GI50 (XF498) was 85.7 µM (inactive). The GI50 (OVCAR-4) was 94 µM (inactive), the GI50 (A549) was 54.1 µM (inactive) and the GI50 (RXF 393) was > 100 µM (inactive). For the same compound, the GI50 (UACC-62) was > 100 µM (inactive), the GI50 (DMS-273) was 42.3 µM (inactive) and the GI50 (NCI-H522) was 25.6 µM (inactive). For the same compound, the GI50 (ACHN) was 44.5 µM (inactive), the GI50 (SK-OV-3) was > 100 µM (inactive) and the GI50 (NCI-H23) was 34.5 µM (inactive). The GI50 (SF-539) was > 100 µM (inactive), the GI50 (Malme-3M) was 34.2 µM (inactive) and the GI50 (U-251) was > 100 µM (inactive). For the same compound, the GI50 (UO-31) was 51.4 µM (inactive), the GI50 (A498) was > 100 µM (inactive) and the GI50 (SNB-75) was 54 µM (inactive). For the same compound, the GI50 (HT-29) was > 100 µM (inactive), the GI50 (SN12C) was > 100 µM (inactive) and the GI50 (SNB-78) was 50.9 µM (inactive). The GI50 (TK-10) was > 100 µM (inactive), the GI50 (KM12) was > 100 µM (inactive) and the GI50 (HCT-15) was 63 µM. For the same compound, the GI50 (SK-MEL-28) was > 100 µM (inactive).
